Measurements from patent US5147652A, “Autobiotics and their use in eliminating nonself cells in vivo” (priority 1990, dated 1992).

How the values were obtained:
[1] = tested on: Candida albicans; test: Effect on proliferation of Candida albicans, disk on agar surface (A); format: cell-based
Description: Stock solutions of the following test compounds were dissolved in physiological saline. However DOV was dissolved in water.
C. albicans isolated from clinical specimens were density grown in SubbaRow's broth at 35 C. A loopful of yeast suspension was evenly spread on the surface of Muller-Hilton agar plates (7cm diameter) with a sterile cotton applicator and incubated for 12 hours. The test compounds were placed on the surface of the sensidisks (Whatmann No. 17 paper, 6mm diameter) in a volume of 5, 10, 20, and 50 μliter of stock solutions and made up a final volume of 50 μliter with saline. The plates then were placed and kept at 37 C for 24 hours (*) and 48 hours (**) when the diameters of the inhibitory rings were recorded. Photographs were also taken of plates.

[2] = tested on: implantation of fertilized mouse eggs; test: Preventing pregnancy in mice; format: in vivo
Description: Six 5 month old female CD-1 mice were injected intraperitoneally with N-1 hydroxy acetonyl maleimide for 12 days (50 microgram/ 20 g mice in saline: max volume 0.6 ml/A/D). Another group of the same mice were injected intraperitoneally with saline for 12 days (0.4ml). this second group of mice served as the control.
Two experienced males were introduced to each group of females and kept together for 8 days during which time the females received their daily injection. Copulation plugs were seen on each female by the 12th day of injection, and signs of pregnancy were seen on the control females on the 15-16th day of the experiment. The females delivered on 20-23 (control) and 24-27th (treated) day respectively (Table 3).
The experiment was repeated with the same females two months later, except that females of the control group were assigned to the test group, while females of the test group were reassigned to the control group. […] The control group delivered 102 pups (T/C =100%).

[3] = tested on: blood coagulation (citrated human blood plasma); test: Blood coagulation (i), ketoaldehyde kept 1-2 seconds before plasma added; format: biochemical; settings: 1-2 seconds contact
Description: (§1) 200 microliter thromboplastin (Ortho) was mixed with 10 microliter ketoaldehyde (KA) stock solution. Then 100 microliter citrated human blood plasma was added and the clot formation time (in seconds) was measured on a Fibrionometer. The effect of the ketoaldehyde on coagulation time was evaluated by comparing the clotting time of the KA treated plasma with the untreated control. The result (d%) was read from a special chart expressing the clotting activity.
(§2) All measurements were run in triplicates. The assay was run at 37 C (waterbath) in special tubes and all solutions were prewarmed.
(i) The plasminogen and ketoaldehyde were kept for
1-2 seconds before the blood plasma was added.

[4] = tested on: blood coagulation (normal plasma); test: Blood coagulation (ii)(b), normal plasma; format: biochemical, human; settings: incubation time 120 seconds
Description: as §1, §2
(ii) The plasminogen and KA were incubated for
varying time before the blood plasma was added.
(b) with normal plasma: clotting time = 11. 7 sec

[5] = tested on: skin graft rejection; test: Combatting rejection mechanism: orthotopic skin transplants between Swiss albino and C3HStCrl mice; format: in vivo
Description: The experiments described here were performed on random-bred Swiss albino mice (white, females, average body weight 26±3 g; Charles River CD-1-strain) and inbred C3HStCrl mice (cinnamon gray, females, average body weight […]; Charles River pedigreed breeders from L.C. Strong Foundation) and othotopic skin transplants were made in both ways, that is, white to gray and gray to white.
Standard transplantation technique (Billingham, R.E. and W.K. Silvers in Transplantation of Tissues and Cells, The Wistar Institute Press, Philadelphia, p. 8, (1961)) was utilized: From nembutal anesthetized animals 4-6 "pinch" -grafts (full thickness, 3-4 mm in diameter) of the close clipped and sterilized skin were collected from the thorax and immediately transplanted. The grafts were positioned in the "beds" (in place of the pinch-graft) and were held in position by tulle gras (vaseline-impregnated gauze) and by plaster-of-Paris impregnated bandage around the thorax.
The bandages were removed on the 6-9th day after the transplantation and the future development of the grafts was followed by macroscopical observations.
a. Animals were treated for 10 days with the composition before grafts were exchanged and treatment was discontinued on the day of transplantation.
b. Animals were not treated before the grafts were exchanged but the treatment started on the day of transplantation and continued for 10 days.
c. Animals were treated for 10 days with the drug before the grafts were exchanged and the treatment schedule was continued for 25 days after the transplantation.
+Treatment: daily injection with 3.744 mg/kg methylglyoxalmalcimide in 1.

[6] = ip, 50 microgram/20 g mice, 12 females

CC(=O)CC(=O)C(=O)O [DOV, 2,4-dioxovaleric acid, reference compound] was tested, and the “inhibition diameters, in words” value ([1]; 5-50 μliter, 24 hours (*)) was “negligible”.

With CCOC(C)C(=O)C=O (centres unmarked) [KE, kethoxal, reference compound] the inhibition diameters ([1]; 10 μliter, 24 hours (*)) was 7 mm, the inhibition diameters ([1]; 20 μliter, 24 hours (*)) was 17 mm and the inhibition diameters ([1]; 20 μliter, 48 hours (**)) was 16 mm. The inhibition diameters ([1]; 50 μliter, 24 hours (*)) was 25 mm and the inhibition diameters ([1]; 50 μliter, 48 hours (**)) was 24 mm.

With O=C1C=CC(=O)N1 [MALI, maleimide, reference compound] the inhibition diameters ([1]; 5 μliter, 24 hours (*)) was 13 mm, the inhibition diameters ([1]; 10 μliter, 24 hours (*)) was 21 mm and the inhibition diameters ([1]; 10 μliter, 48 hours (**)) was 17 mm. It also gave an inhibition diameters ([1]; 20 μliter, 24 hours (*)) of 29 mm, an inhibition diameters ([1]; 20 μliter, 48 hours (**)) of 25 mm and an inhibition diameters ([1]; 50 μliter, 24 hours (*)) of 30 mm. It also gave an inhibition diameters ([1]; 50 μliter, 48 hours (**)) of 30 mm.

CC(=O)C(O)N1C(=O)C=CC1=O (centres unmarked) [MGMALI] was tested, and the I % ([2]; ip, 50 microgram/20 g mice) was 89.7%, the T/C % ([2]; ip, 50 microgram/20 g mice) was 10.3% and the “delivered (pups)” value [2, 6] was 11. For the same compound, the females that delivered [2, 6] was 2 female, the inhibition of delivery ([2]; second experiment, groups exchanged, two months later) was 83.3% and the day of delivery ([2]; treated females, control 20-23) was 24 to 27 days. For the same compound, the inhibition diameters ([1]; 10 μliter, 24 hours (*)) was 8 mm, the inhibition diameters ([1]; 20 μliter, 24 hours (*)) was 18 mm and the inhibition diameters ([1]; 20 μliter, 48 hours (**)) was 17 mm. For the same compound, the inhibition diameters ([1]; 50 μliter, 24 hours (*)) was 22 mm and the inhibition diameters ([1]; 50 μliter, 48 hours (**)) was 22 mm.

In the case of O=CC(=O)Cc1ccccc1 [PMG, 3-Phenylmethylglyoxal], the “d % (clotting activity)” value ([3]; control 22) is reported as 10.5%, the coagulation time ([3]; control 24) is reported as 36 s and the clot ([3]; control hard) is reported as “hard”. The clotting time [4] was 21.2 s and the d% [4] was 28%.

For methylglyoxalmalcimide, the rejection ([5]; (a) pretreatment 10 days, printed g to 2, 31-40 days, cumulative) was 100%, the rejection ([5]; (a) pretreatment 10 days, w to g, 26-30 days, cumulative) was 30% and the rejection ([5]; (b) post graft treatment 10 days, printed g to 2, 31-40 days, cumulative) was 10%. For the same compound, the rejection ([5]; (b) post graft treatment 10 days, w to g, 26-31 days, cumulative) was 10%, the rejection ([5]; (c) pretreatment 10 days and post graft 25 days, g to w, 31-40 days, cumulative) was 10% and the rejection ([5]; (c) pretreatment 10 days and post graft 25 days, w to g, 26-30 days) was “No rejection”.
